Reference: PubChem BioAssay (NCI)
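A five-concentration, 48-hour dose response in 96-well plates underlies each endpoint, interpolated linearly between surrounding concentrations. Here, GI50 denotes the concentration required for 50% inhibition of growth. TGI is the concentration that stops growth completely.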 Where a SMILES comes first, the peptide text is derived from it. The star is where a group is joined. Cbz = O=C(OCc1ccccc1)*; Bn = c1ccc(C*)cc1

Assays:
Test in all cases: inhibition of tumour cell growth, NCI panel, 48 h
RXF 393 renal = test system: RXF 393 renal
A498 renal = test system: A498 renal
HOP-92 NSCLC = test system: HOP-92 NSCLC
CCRF-CEM leukemia = test system: CCRF-CEM leukemia
TK-10 renal = test system: TK-10 renal
SN12C renal = test system: SN12C renal
A549 NSCLC = test system: A549 NSCLC
OVCAR-4 ovarian = test system: OVCAR-4 ovarian
KM12 colon = test system: KM12 colon
ACHN renal = test system: ACHN renal
SF-539 CNS = test system: SF-539 CNS

Row | Compound | TGI (RXF 393 renal) [µM] | TGI (A498 renal) [µM] | TGI (HOP-92 NSCLC) [µM] | TGI (CCRF-CEM leukemia) [µM] | TGI (TK-10 renal) [µM] | TGI (SN12C renal) [µM] | TGI (A549 NSCLC) [µM] | TGI (OVCAR-4 ovarian) [µM] | TGI (KM12 colon) [µM] | TGI (ACHN renal) [µM] | TGI (SF-539 CNS) [µM] | GI50 (A498 renal) [µM] | GI50 (TK-10 renal) [µM] | GI50 (SN12C renal) [µM] | GI50 (KM12 colon) [µM] | GI50 (ACHN renal) [µM] | GI50 (SF-539 CNS) [µM] | GI50 (HOP-92 NSCLC) [µM] | GI50 (OVCAR-4 ovarian) [µM]
1 | CC1C[C@]2(C[C@@H](C)C(=O)O2)OC2CC3(C)C4CCC5C(C)(C)OC(=O)CC[C@@]56C[C@@]46CC[C@]3(C)C12 (some centres undefined) | > 100 | > 100 | > 100 | > 100 | > 100 | > 100 | > 100 | > 100 | > 100 | > 100 | > 100 | – | – | – | – | – | – | – | –
2 | C1CSCCSCSCCS1 | > 100 | > 100 | > 100 | – | > 100 | > 100 | > 100 | > 100 | > 100 | > 100 | > 100 | – | – | – | – | – | – | – | –
3 | CS(=O)(=O)c1ccc2nc(-c3ccc(O)cc3)sc2c1 | 32.9 | 31.2 | – | > 100 | 29.8 | 35.5 | 34.3 | – | 30.2 | 32.4 | 23.6 | – | – | – | – | – | – | – | –
4 | C[n+]1c2ccccc2c(CNCC(=O)O)c2ccccc21 | 6.5 | 7.43 | 10.4 | – | 3.06 | 2.81 | 13.1 | 25.2 | 11 | 2.59 | 5.19 | – | – | – | – | – | – | – | –
5 | COC(=O)C(Cc1ccc(O)cc1)NC(=O)C(COCc1ccccc1)NC(=O)OCc1ccccc1 (centres undefined) (Cbz-Ser(Bn)-Tyr-OMe; configuration not given here) | 33.9 | 58 | 60.8 | > 100 | 35.2 | 32.7 | 35.7 | 34 | 35 | 31.2 | 34.2 | – | – | – | – | – | – | – | –
6 | COc1ccc(-c2oc3cc(OC(C)=O)cc(OC(C)=O)c3c(=O)c2OC)cc1 | – | 61.1 | – | 49.6 | 70.8 | – | 74.1 | – | – | 45.8 | – | – | – | – | – | – | – | – | –
7 | CCCCSCC(NC(=O)/C=C/c1c(C)[nH]c(=O)[nH]c1=O)C(=O)OC (centres undefined) | 267 | 224 | 189 | 245 | – | 269 | 401 | > 89 | 157 | – | 254 | – | – | – | – | – | – | – | –
8 | O=C1c2cccc(O)c2C(=O)c2c(O)cccc21 | > 100 | > 100 | > 100 | > 100 | > 100 | > 100 | > 100 | > 100 | > 100 | > 100 | > 100 | – | – | – | – | – | – | – | –
9 | C[P+](c1ccccc1)(c1ccc(Cl)cc1)c1ccc(Cl)cc1 | > 100 | 98.3 | 40.3 | – | 36.9 | 51.2 | > 100 | 45.2 | – | > 100 | 65.4 | – | – | – | – | – | – | – | –
10 | CN(C)CCOc1cc2c(c3ccccc13)-c1ccccc1C2O (centres undefined) | 10.1 | 29.8 | 19.5 | 33.1 | – | 26.9 | 29.3 | 32.9 | 29.5 | – | 27.5 | – | – | – | – | – | – | – | –
11 | NC(CCP(=O)(O)O)C(=O)O (centres undefined) | > 100 | > 100 | > 100 | > 100 | > 100 | > 100 | > 100 | > 100 | > 100 | > 100 | – | – | – | – | – | – | – | – | –
12 | N=C(N)c1ccc(-c2ccc(-c3ccc4ccccc4c3)s2)s1 | – | 10.5 | – | – | 4.77 | 3.74 | – | – | 4.08 | 6.66 | 4.57 | 1.7 | 2.23 | 1.87 | 1.92 | 2.53 | 1.97 | – | –
13 | COc1ccc(N2C(=O)/C(=C\c3ccccc3)SC2c2cc(OC)c(OC)c(OC)c2)cc1 (centres undefined) | > 100 | > 100 | > 100 | > 100 | > 100 | > 100 | > 100 | > 100 | > 100 | > 100 | – | – | – | – | – | – | – | – | –
14 | NC(=O)c1ccc([N+](=O)[O-])cc1 | > 100 | > 100 | – | > 100 | > 100 | > 100 | > 100 | – | > 100 | – | > 100 | – | – | – | – | – | – | – | –
15 | c1ccc(-c2n(Cc3ccc4ccccc4c3)c3ccccc3[n+]2Cc2ccc3ccccc3c2)cc1 | – | 0.933 | 0.508 | – | – | 1.1 | – | 0.818 | 1.2 | 2.36 | 1.29 | < 0.043 | – | 0.308 | 0.321 | 0.975 | 0.336 | 0.117 | 0.245
16 | O=C(Nc1ccc(Cl)cc1)c1cc([N+](=O)[O-])ccc1O | 6.64 | 11.2 | – | 11 | > 60.6 | > 50.9 | > 96.2 | > 100 | 24.5 | > 100 | > 34 | – | – | – | – | – | – | – | –
17 | C=CCOCCC(CC=C)C(=O)CC(=O)OC (centres undefined) | > 100 | > 100 | > 100 | > 100 | > 100 | > 100 | > 100 | > 100 | > 100 | > 100 | > 100 | – | – | – | – | – | – | – | –
